Assay results: ChEMBL document CHEMBL4270672, “Synthesis and Biological Evaluation of Fused Tricyclic Heterocycle Piperazine (Piperidine) Derivatives As Potential Multireceptor Atypical Antipsychotics” (J Med Chem, 2018)
Activity calls are given as the source filed them. The rule behind the calls is not given here.

Legend:
Rattus norvegicus [1] = test: Cognitive enhancing effect in Sprague-Dawley rat assessed as effect on total exploration time for familiar objects in acquisition trial at 0.03 to 0.3 mg/kg, po administered 1 hr measured for 3 mins by novel object recognition test; format: functional, organism-based
[2] = target: 5-hydroxytryptamine receptor 2A (Rattus norvegicus, UniProt P14842); test: Displacement of [3H]-ketanserine from serotonin 5-HT2A receptor in rat brain cortex homogenates incubated for 30 mins by liquid scintillation counting
Chain of 5-hydroxytryptamine receptor 2A (Rattus norvegicus, UniProt P14842) (P14842 whole entry, canonical isoform): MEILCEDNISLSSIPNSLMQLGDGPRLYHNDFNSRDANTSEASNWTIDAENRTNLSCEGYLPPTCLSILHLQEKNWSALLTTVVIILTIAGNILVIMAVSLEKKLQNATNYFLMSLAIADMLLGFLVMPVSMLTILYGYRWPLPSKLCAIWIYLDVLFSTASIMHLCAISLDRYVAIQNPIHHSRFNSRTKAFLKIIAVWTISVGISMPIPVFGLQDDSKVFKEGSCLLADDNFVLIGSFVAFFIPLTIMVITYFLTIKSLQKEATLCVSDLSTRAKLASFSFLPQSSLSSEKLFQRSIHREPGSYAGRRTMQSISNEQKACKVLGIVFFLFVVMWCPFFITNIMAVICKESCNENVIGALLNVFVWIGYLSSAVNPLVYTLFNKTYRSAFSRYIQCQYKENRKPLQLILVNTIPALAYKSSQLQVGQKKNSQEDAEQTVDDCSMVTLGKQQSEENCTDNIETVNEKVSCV

D(2) dopamine receptor [3] = target: T1, D(2) dopamine receptor (Homo sapiens, UniProt P14416); test: Agonist activity at dopamine D2 receptor long isoform (unknown origin) expressed in HEK293 cells assessed as induction of calcium flux at 10 uM after 60 min by calcium 4-dye based FLIPR assay relative to control; format: functional, cell-based
T1 sequence (P14416 whole entry, canonical isoform): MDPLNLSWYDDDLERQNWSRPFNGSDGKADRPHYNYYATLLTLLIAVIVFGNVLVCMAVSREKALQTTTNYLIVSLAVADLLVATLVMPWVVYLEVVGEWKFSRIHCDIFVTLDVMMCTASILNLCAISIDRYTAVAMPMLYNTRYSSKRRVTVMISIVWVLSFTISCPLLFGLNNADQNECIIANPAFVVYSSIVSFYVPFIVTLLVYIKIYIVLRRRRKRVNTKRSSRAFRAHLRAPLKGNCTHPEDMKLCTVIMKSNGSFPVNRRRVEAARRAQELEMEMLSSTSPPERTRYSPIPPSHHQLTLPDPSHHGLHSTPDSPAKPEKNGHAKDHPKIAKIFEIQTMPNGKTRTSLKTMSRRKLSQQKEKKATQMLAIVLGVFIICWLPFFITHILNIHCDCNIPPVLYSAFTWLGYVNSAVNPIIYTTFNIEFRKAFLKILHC

[4] = target: 5-hydroxytryptamine receptor 1A (Homo sapiens) (UniProt P08908); test: Agonist activity at serotonin 5-HT1A receptor (unknown origin) expressed in HEK293 cells assessed as induction of calcium flux at 10 uM after 60 mins by calcium 4-dye based FLIPR assay relative to control; format: functional, cell-based
Chain of 5-hydroxytryptamine receptor 1A (Homo sapiens) (P08908 whole entry): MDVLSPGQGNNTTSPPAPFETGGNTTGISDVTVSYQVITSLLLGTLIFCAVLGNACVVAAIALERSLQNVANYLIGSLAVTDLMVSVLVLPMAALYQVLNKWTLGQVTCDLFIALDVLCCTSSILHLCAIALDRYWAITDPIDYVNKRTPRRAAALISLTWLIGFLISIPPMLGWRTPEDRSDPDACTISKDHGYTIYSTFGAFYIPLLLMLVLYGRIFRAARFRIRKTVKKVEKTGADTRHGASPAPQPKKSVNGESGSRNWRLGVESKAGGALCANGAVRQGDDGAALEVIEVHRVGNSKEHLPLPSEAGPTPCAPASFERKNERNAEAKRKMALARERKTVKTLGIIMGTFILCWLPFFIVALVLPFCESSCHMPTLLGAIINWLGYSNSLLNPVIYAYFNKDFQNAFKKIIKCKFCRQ

[5] = target: 5-hydroxytryptamine receptor 2A (Homo sapiens, UniProt P28223); test: Agonist activity at serotonin 5-HT2A receptor (unknown origin) expressed in HEK293 cells assessed as induction of calcium flux at 10 uM after 60 mins by calcium 4-dye based FLIPR assay relative to control; format: functional, cell-based
Chain of 5-hydroxytryptamine receptor 2A (Homo sapiens, UniProt P28223) (P28223 whole entry, canonical isoform): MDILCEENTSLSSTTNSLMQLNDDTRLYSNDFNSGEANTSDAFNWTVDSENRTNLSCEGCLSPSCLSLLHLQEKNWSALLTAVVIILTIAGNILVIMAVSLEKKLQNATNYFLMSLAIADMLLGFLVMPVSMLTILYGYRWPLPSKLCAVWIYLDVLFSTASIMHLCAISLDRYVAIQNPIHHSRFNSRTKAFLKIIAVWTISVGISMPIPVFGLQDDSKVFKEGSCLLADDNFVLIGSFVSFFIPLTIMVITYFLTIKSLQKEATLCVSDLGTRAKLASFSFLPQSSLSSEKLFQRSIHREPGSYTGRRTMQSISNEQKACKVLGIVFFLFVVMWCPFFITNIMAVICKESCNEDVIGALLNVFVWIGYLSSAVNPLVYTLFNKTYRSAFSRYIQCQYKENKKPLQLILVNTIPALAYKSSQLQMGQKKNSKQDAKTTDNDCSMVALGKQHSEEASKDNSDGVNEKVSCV

D(2) dopamine receptor [6] = target: T1, D(2) dopamine receptor; test: Antagonist activity at dopamine D2 receptor long isoform (unknown origin) expressed in HEK293 cells assessed as inhibition of dopamine-induced calcium flux at 10 uM after 15 mins by calcium 4-dye based FLIPR assay relative to control; format: functional, cell-based
Rattus norvegicus [7] = test: Antipsychotic activity in po dosed Sprague-Dawley rat assessed as reduction in conditioned avoidance response measured at 90 mins post single dose; format: functional; details: 1.5 h
[8] = Therapeutic index, ratio of ED50 for catalepsy in Kunming mouse to ED50 for apomorphine-induced climbing in Kunming mouse; format: toxicity, organism-based; details: in vivo, read-out: Ratio ED50
[9] = Cmax in Sprague-Dawley rat at 10 mg/kg, po by LC-MS/MS analysis; format: ADME, organism-based; parameters: dose 10 mg/kg, route oral; details: in vivo
[10] = AUC (0 to t) in Sprague-Dawley rat at 10 mg/kg, po by LC-MS/MS analysis; format: ADME, organism-based; details: in vivo
Rattus norvegicus [11] = test: Cognitive enhancing effect in Sprague-Dawley rat assessed as increase in total exploration time for novel objects in retention trial at 0.03 mg/kg, po administered 1 hr prior to acquisition trial measured 24 hrs post acquisition trial for 5 mins by novel object recognition test; format: functional, organism-based
Rattus norvegicus [12] = test: Cognitive enhancing effect in Sprague-Dawley rat assessed as increase in novelty discrimination index in retention trial at 0.3 mg/kg, po administered 1 hr prior to acquisition trial measured 24 hrs post acquisition trial for 5 mins by novel object recognition test; format: functional, organism-based
[13] = target: 5-hydroxytryptamine receptor 7 (Rattus norvegicus, UniProt P32305); test: Displacement of [3H]-5-CT from 5-HT7 receptor in rat cerebral cortex homogenates after 30 mins by liquid scintillation counting
Chain of 5-hydroxytryptamine receptor 7 (P32305 whole entry): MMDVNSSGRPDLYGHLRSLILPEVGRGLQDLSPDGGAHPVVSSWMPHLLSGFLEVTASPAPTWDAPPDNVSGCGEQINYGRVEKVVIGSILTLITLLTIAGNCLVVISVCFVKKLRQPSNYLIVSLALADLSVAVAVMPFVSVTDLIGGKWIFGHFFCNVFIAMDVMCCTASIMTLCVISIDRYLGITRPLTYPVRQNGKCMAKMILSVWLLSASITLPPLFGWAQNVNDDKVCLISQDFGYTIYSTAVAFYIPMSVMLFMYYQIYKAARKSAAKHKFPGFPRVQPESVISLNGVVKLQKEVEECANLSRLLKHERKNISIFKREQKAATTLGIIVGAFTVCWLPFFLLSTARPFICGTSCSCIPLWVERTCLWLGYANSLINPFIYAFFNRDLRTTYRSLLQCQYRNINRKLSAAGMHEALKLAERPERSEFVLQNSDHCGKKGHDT

D(1A) dopamine receptor = D(1A) dopamine receptor (Homo sapiens, UniProt P21728); test: Antagonist activity at human dopamine D1 receptor expressed in HEK293T cells assessed as inhibition of dopamine-induced cAMP accumulation at 10 uM preincubated for 15 mins followed by dopamine induction and measured after 30 mins by HTRF assay; format: functional, cell-based
Chain of D(1A) dopamine receptor (P21728 whole entry): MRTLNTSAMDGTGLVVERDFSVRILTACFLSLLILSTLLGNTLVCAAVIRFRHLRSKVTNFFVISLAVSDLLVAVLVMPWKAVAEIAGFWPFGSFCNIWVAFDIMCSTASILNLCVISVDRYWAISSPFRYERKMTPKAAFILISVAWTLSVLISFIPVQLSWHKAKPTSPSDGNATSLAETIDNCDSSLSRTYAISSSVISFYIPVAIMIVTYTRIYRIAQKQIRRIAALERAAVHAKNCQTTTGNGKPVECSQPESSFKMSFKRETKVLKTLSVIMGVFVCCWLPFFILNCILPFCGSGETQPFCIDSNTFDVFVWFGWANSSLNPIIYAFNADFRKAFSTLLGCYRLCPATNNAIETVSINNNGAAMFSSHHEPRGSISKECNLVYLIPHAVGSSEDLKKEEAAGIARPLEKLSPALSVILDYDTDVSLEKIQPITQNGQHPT

[14] = target: Adrenergic receptor alpha-2 (Rattus norvegicus, UniProt P22086+P19328+P22909); test: Displacement of [3H]-rauwolscine from adrenergic alpha2 receptor in rat cerebral cotex homogenates after 60 mins by liquid scintillation counting
Histamine H3 receptor = Histamine H3 receptor (Rattus norvegicus, UniProt Q9QYN8); test: Displacement of [3H] methylhistamine from histamine H3 receptor in rat cerebral cotex homogenates after 30 mins by liquid scintillation counting
Chain of Histamine H3 receptor (Q9QYN8 whole entry): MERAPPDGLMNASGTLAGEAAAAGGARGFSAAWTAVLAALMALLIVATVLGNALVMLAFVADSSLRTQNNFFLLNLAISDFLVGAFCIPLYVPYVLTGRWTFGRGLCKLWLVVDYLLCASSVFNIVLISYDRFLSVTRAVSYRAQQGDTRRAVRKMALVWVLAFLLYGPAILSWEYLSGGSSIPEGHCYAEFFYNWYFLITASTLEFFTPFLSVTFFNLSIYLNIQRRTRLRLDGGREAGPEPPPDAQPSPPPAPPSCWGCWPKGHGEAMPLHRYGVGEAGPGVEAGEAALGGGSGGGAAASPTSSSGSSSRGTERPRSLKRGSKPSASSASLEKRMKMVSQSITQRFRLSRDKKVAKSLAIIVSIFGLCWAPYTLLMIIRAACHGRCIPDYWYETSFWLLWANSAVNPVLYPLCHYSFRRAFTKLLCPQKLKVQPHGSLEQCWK

[15] = Displacement of [3H] nisoxetine from NET in rat hippocampal membrane homogenates after 8 hrs by liquid scintillation counting; format: cell membranes
[16] = target: Sigma non-opioid intracellular receptor 1 (Cavia porcellus, UniProt Q60492); test: Displacement of [3H]-(+)-pentazocine from sigma1 receptor in guinea pig brain membranes after 180 mins by liquid scintillation counting; format: cell membranes, Membrane
Chain of Sigma non-opioid intracellular receptor 1 (Q60492 whole entry): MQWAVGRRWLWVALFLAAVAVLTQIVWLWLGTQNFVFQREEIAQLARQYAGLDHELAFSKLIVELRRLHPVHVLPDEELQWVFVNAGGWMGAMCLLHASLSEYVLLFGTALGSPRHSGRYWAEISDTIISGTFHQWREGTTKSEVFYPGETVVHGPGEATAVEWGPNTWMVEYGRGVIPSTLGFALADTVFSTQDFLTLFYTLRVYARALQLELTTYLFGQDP

[17] = target: Sodium-dependent dopamine transporter (Rattus norvegicus, UniProt P23977); test: Displacement of [3H] WIN35,428 from rat striatum homogenate DAT after 8 hrs mins by liquid scintillation counting
Chain of Sodium-dependent dopamine transporter (P23977 whole entry): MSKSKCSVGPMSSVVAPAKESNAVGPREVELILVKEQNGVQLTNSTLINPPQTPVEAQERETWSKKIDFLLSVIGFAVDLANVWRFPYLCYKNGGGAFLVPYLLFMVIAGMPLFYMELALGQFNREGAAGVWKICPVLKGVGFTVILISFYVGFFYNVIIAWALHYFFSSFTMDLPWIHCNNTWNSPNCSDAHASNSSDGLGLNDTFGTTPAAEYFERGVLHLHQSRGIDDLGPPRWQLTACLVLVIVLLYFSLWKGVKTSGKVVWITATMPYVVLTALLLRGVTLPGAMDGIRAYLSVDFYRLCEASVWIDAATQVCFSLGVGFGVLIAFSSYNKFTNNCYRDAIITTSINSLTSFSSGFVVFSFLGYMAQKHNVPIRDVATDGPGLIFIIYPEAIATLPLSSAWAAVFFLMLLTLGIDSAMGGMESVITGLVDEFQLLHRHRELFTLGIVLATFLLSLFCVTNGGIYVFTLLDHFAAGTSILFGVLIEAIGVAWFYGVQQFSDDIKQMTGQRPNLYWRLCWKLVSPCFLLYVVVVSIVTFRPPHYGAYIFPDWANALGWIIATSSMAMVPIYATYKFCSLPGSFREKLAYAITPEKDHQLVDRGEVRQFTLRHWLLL

[18] = target: T2, 5-hydroxytryptamine receptor 1A (Rattus norvegicus, UniProt P19327)
T2 sequence (P19327 whole entry): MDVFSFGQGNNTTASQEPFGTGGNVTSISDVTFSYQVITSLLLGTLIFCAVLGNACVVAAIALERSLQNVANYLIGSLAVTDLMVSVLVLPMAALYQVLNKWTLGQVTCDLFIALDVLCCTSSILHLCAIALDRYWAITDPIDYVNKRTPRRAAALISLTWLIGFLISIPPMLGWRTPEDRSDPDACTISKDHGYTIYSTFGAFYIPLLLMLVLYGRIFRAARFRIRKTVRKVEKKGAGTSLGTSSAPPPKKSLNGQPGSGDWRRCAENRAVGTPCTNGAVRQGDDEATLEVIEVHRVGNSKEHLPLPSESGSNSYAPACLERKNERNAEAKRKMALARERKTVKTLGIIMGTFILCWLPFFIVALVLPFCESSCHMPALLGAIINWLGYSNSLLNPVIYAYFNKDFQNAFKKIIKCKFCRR

Histamine H1 receptor = Histamine H1 receptor (Cavia porcellus, UniProt P31389)
Description: Displacement of [3H]-mepyramine from histamine H1 receptor in guinea pig cerebellum homogenates incubated for 60 mins by liquid scintillation counting

D(2) dopamine receptor [19] = target: T1, D(2) dopamine receptor
D(3) dopamine receptor = D(3) dopamine receptor (Homo sapiens, UniProt P35462)
Chain of D(3) dopamine receptor (P35462 whole entry): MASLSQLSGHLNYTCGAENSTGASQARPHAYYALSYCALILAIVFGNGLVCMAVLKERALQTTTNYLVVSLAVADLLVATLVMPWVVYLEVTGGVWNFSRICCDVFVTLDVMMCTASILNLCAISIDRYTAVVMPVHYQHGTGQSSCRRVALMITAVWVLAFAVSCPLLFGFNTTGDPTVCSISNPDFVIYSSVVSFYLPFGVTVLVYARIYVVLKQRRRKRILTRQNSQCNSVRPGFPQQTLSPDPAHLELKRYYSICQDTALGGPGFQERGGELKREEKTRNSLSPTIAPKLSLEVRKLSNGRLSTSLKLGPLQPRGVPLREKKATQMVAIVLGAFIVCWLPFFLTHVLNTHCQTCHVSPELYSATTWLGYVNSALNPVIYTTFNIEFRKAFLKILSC

[20] = target: 5-hydroxytryptamine receptor 1A (Homo sapiens, UniProt P08908)
Chain of 5-hydroxytryptamine receptor 1A (Homo sapiens, UniProt P08908) (P08908 whole entry): as the sequence (P08908 whole entry) above

[21] = target: T3, 5-hydroxytryptamine receptor 6 (Homo sapiens, UniProt P50406)
T3 sequence (P50406 whole entry): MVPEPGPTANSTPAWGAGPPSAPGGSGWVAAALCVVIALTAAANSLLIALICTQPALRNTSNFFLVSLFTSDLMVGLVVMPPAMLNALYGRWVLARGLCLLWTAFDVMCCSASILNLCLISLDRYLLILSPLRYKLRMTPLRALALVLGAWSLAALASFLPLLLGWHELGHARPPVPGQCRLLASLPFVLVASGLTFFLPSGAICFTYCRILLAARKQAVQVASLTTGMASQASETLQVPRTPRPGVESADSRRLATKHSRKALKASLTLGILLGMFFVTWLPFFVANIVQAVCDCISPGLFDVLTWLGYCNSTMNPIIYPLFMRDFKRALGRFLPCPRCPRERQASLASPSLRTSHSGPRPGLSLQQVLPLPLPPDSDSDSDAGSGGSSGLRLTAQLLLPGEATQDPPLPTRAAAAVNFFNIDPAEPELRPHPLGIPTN

[22] = target: T3, 5-hydroxytryptamine receptor 6; test: biochemical
Mus musculus [23] = organism: Mus musculus; test: animal or person; details: Kunming, po
Description: (§1) Antipsychotic activity in po dosed Kunming mouse assessed as reduction in apomorphine-induced climbing pretreated for 30 mins followed by apomorphine injection measured at 10 to 30 mins post dose

Mus musculus [24] = organism: Mus musculus; test: animal or person; details: Kunming, po; remark: listed apart in the source
Description: (§2) Antipsychotic activity in po dosed Kunming mouse assessed as reduction in MK-801-induced hyperactivity pretreated for 60 mins followed by MK-801 challenge measured for 90 mins

Mus musculus [25] = details: Kunming
Description: as §2

Mus musculus [26] = details: Kunming; remark: listed apart in the source
Description: as §1

Compound: O=C(CCCCN1CCC(c2noc3cc(F)ccc23)CC1)c1cc2c3c(c1)CCN3C(=O)CC2
- Activity (Rattus norvegicus [1]): inactive
- Ki [2]: 0.00072 µM
- Activity (D(2) dopamine receptor [3]): 9.8%
- Activity [4]: 8.6%
- Activity [5]: 0.6%
- inhibition (D(2) dopamine receptor [6]): 93.3%
- ED50 (Rattus norvegicus [7]): 1.46 mg/kg
- selectivity ratio [8]: 129
- Cmax [9]: 3.73 µg/mL
- AUC(0-t) [10]: 18.5 µg·h/mL
- Activity (Rattus norvegicus [11]): inactive
- Activity (Rattus norvegicus [12]): Active
- Ki [13]: 0.226 µM
- inhibition (D(1A) dopamine receptor): > 90%
- Ki [14]: > 1 µM
- Ki (Histamine H3 receptor): > 1 µM
- Ki [15]: > 1 µM
- Ki [16]: > 1 µM
- Ki [17]: > 1 µM
- Ki [18]: 0.0086 µM
- Ki (Histamine H1 receptor): 0.63 µM
- IC50 (D(2) dopamine receptor [19]): 0.00902 µM
- IC50 (D(3) dopamine receptor): 0.0256 µM
- IC50 [20]: 0.588 µM
- IC50 [21]: 0.178 µM
- Ki [22]: 0.00555 µM
- ED50 (Mus musculus [23]): 0.61 mg/kg
- ED50 (Mus musculus [24]): 0.26 mg/kg
- Activity (Mus musculus [25]): Dose-dependent effect
- Activity (Mus musculus [26]): Dose-dependent effect
